Results on five compounds are retold here after patent publication US8557854B2, “Use of a sulfonamide compound for improving the pharmacokinetics of a drug” (Janssen R&D Ireland, priority 2005, dated 2013).

Read-outs that look alike come from different tables or passages of the source.

The target in data set [1] is T1, CYP450 3A4 (Homo sapiens, UniProt P08684).
T1 construct: mediated by CYP450 3A4 in human liver microsomes; from tissue; host or cells: human liver microsomes
Description: In vitro inhibition of CYP3A4: testosterone 6β-hydroxylation in human liver microsomes. It is filed as biochemical.

Data set [2] has as its system Caco-2 monolayers. Put plainly: Bi-directional protease inhibitor transport across Caco-2 monolayers (efflux ratio). The settings on record: Caco-2, 100 μM. The data set is classed as in vitro ADME. An excerpt:
(§1) The transport of experimental protease inhibitors was studied in Caco-2 monolayers grown to confluency.
For orientation: Caco-2 monolayers are a common model of the intestinal barrier.

The format of data set [3] is in vivo, NZW rabbits.
Data set [4] concerns wild-type HIV-1. The settings on record: disclosed in WO 02/092595; cited from earlier work.
Data set [5] has as its system large panel of viruses resistant to currently known PIs. Particulars: disclosed in WO 02/092595; cited from earlier work.
A short description of data set [6]: Bi-directional protease inhibitor transport across Caco-2 monolayers (efflux ratio). The data set is classed as in vitro ADME. Particulars: human, Caco-2, control (no inhibitor), 90 min.
Description: as §1

The nature of data set [7]: Phase I trial: effect of compound A on single dose pharmacokinetics of saquinavir in healthy subjects. Particulars: human, in vivo, 1000 mg. The procedure:
[drawing 12] was used in a Phase I, open-label, randomized trial in healthy subjects to investigate the steady state pharmacokinetics of compound A, and its effect on the single dose pharmacokinetics of the protease inhibitor saquinavir. Three panels of 8 healthy subjects took a single dose of 1000 mg saquinavir alone, and while taking compound A. The pharmacokinetics of the two intakes of saquinavir was compared. On Day 1 in all panels, all subjects received a single dose of 1000 mg saquinavir. From Day 4 to Day 10, one group of healthy volunteers (Panel 1) received 60 mg compound A b.i.d., one group received 160 mg compound A b.i.d. (Panel 2) and one group took 400 mg compound A b.i.d. (Panel 3). On Day 9, all subjects took a single dose of 1000 mg saquinavir simultaneously with compound A. Full pharmacokinetic profiles of compound A were determined on Day 4, Day 8 and Day 9. Full pharmacokinetic profiles of saquinavir were determined on Day 1 and on Day 9.

T1 sequence (P08684 whole entry): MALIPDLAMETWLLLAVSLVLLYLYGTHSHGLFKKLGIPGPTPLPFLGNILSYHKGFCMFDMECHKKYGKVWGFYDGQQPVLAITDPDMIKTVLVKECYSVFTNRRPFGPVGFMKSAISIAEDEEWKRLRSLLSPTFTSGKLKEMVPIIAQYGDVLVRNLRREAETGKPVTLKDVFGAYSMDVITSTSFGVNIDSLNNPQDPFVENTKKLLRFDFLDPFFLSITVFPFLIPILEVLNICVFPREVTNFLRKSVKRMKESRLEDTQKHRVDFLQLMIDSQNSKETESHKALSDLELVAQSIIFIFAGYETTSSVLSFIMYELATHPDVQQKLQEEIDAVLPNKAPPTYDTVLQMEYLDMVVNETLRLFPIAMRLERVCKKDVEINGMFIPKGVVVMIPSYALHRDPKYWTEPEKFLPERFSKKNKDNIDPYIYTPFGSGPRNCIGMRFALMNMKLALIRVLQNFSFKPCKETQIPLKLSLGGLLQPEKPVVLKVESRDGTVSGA

The IC50 is the point on the concentration scale where inhibition reaches its midpoint. Usually Ki stands for a dissociation constant, usually derived from enzyme kinetics or from competition with a known ligand. With `CC(C)CN(C[C@@H](O)[C@H](Cc1ccccc1)NC(=O)OCc1cncs1)S(=O)(=O)c1ccc2nc(N)oc2c1` [Compound A, 5-thiazolylmethyl[(1S,2R)-3[[(2-amino-6-benzoxazolyl)sulfonyl]-(2-methylpropyl)amino]-2-hydroxy-1-(phenylmethyl)propyl]carbamate], the IC50 in data set [1] (testosterone 6β-hydroxylation, read-out: IC50 of CYP3A4 mediated metabolism) fell in the range of 25 to 100 nM. In data set [1] (testosterone metabolism, non-competitive inhibition model, read-out: inhibition constant Ki of CYP3A4 inhibition), the Ki was 65 nM. The “effect on transport polarity of protease inhibitors (Pgp efflux)” value in data set [2] is listed as “significantly reduce the transport polarity”. In data set [3], the “effect on plasma level of darunavir in rabbits” value was “increase”. In addition, the “in vitro activity against wild-type HIV-1” value in data set [4] was “has in vitro activity”. Further, the “activity against a large panel of viruses resistant to currently known PIs” value in data set [5] is listed as “has also activity”.
As for `CC(C)CN(C[C@@H](O)[C@H](Cc1ccccc1)NC(=O)O[C@H]1CO[C@H]2OCC[C@H]21)S(=O)(=O)c1ccc2nc(NCCN3CCCC3)sc2c1` [Compound B], in data set [6] (compound B 30 μM, read-out: efflux ratio (ER) of compound B), the efflux ratio at 90 min, 30 μM turned out to be 171.
Take `CCN1CCC[C@@H]1CNc1nc2ccc(S(=O)(=O)N(CC(C)C)C[C@@H](O)[C@H](Cc3ccccc3)NC(=O)O[C@H]3CO[C@H]4OCC[C@H]43)cc2s1` [Compound C]: the efflux ratio at 90 min, 30 μM in data set [6] (compound C 30 μM, read-out: efflux ratio (ER) of compound C) came out at 119.
As for `CC(C)CN(C[C@H](O)[C@@H](Cc1ccccc1)NC(=O)OCc1cncs1)S(=O)(=O)c1ccc2nc(N)oc2c1` [Compound E, 5-thiazolylmethyl[(1R,2S)-3[[(2-amino-6-benzoxazolyl)sulfonyl](2-methylpropyl)amino]-2-hydroxy-1-(phenylmethyl)propyl]carbamate], the “effect on plasma level of darunavir in rabbits” value in data set [3] was “increase”.
Regarding `CC(C)(C)NC(=O)[C@@H]1C[C@@H]2CCCC[C@@H]2CN1C[C@@H](O)[C@H](Cc1ccccc1)NC(=O)[C@H](CC(N)=O)NC(=O)c1ccc2ccccc2n1` [saquinavir], the tmax of saquinavir in data set [7] is listed as 5.0 (2.0-6.0) h. The compound further registered an AUC(0-t) in data set [7] (AUClast of saquinavir) of 515 ± 306 ng·h/mL. In addition, in data set [7] (Cmax of saquinavir), the Cmax was 117 ± 77.7 ng/mL. In addition, the Tmax in data set [7] (tmax of saquinavir) was found to be 4.5 h.
